In PubChem BioAssay (NCI):
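Growth conditions: 96-well plates. Treatment: test compound, 48 hours, 5 concentrations. Analysis: linear interpolation between bracketing concentrations; unreached endpoints set to highest concentration. TGI is the concentration that stops growth completely.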

How the values were obtained:
Experiment in all cases: growth of human tumour cells (NCI), 48 h
DLD-1 colon = system: DLD-1 colon
DMS 114 small cell lung = system: DMS 114 small cell lung
DMS 273 small cell lung = system: DMS 273 small cell lung
KM20L2 colon = system: KM20L2 colon
RXF-631 renal = system: RXF-631 renal
XF 498 CNS = system: XF 498 CNS

SMILES: CC(=O)CC(N)=O
- TGI (DLD-1 colon): > 100 µM
- TGI (DMS 114 small cell lung): > 100 µM
- TGI (DMS 273 small cell lung): > 100 µM
- TGI (KM20L2 colon): > 100 µM
- TGI (RXF-631 renal): > 100 µM
- TGI (XF 498 CNS): > 100 µM

SMILES: CCOC(=O)/C(=C\c1ccc(N(CCC#N)CCC#N)cc1)NC(=O)c1cc([N+](=O)[O-])ccc1Cl
- TGI (DLD-1 colon): > 100 µM
- TGI (DMS 114 small cell lung): > 100 µM
- TGI (DMS 273 small cell lung): > 100 µM
- TGI (KM20L2 colon): > 100 µM
- TGI (RXF-631 renal): > 100 µM

SMILES: COc1ccc(/C(=N\NC(=O)C(=O)NN)C(c2ccc(OC)cc2)C2(O)C(=O)Nc3ccccc32)cc1 (stereo unspecified)
- TGI (DLD-1 colon): > 100 µM
- TGI (DMS 114 small cell lung): > 100 µM
- TGI (DMS 273 small cell lung): > 100 µM
- TGI (KM20L2 colon): > 100 µM
- TGI (RXF-631 renal): > 100 µM
- TGI (XF 498 CNS): > 100 µM

SMILES: COC(=O)C1=C(O)c2cc(-c3ccccc3)c(-c3ccccc3)c(C#N)c2NC(=O)C1
- TGI (DLD-1 colon): > 100 µM
- TGI (DMS 114 small cell lung): > 100 µM
- TGI (DMS 273 small cell lung): > 100 µM
- TGI (KM20L2 colon): > 100 µM
- TGI (RXF-631 renal): 41 µM
- TGI (XF 498 CNS): > 100 µM

SMILES: Cc1cccc(C)c1CO
- TGI (DLD-1 colon): > 100 µM
- TGI (DMS 114 small cell lung): > 100 µM
- TGI (DMS 273 small cell lung): > 100 µM
- TGI (KM20L2 colon): > 100 µM
- TGI (RXF-631 renal): > 100 µM
- TGI (XF 498 CNS): > 100 µM

SMILES: O=C1[C@H]2ON(c3ccccc3)C(c3ccccc3)[C@H]2C(=O)N1c1ccc(Cc2ccc(N3C(=O)[C@@H]4ON(c5ccccc5)C(c5ccccc5)[C@@H]4C3=O)cc2)cc1 (stereo partly specified)
- TGI (DLD-1 colon): > 100 µM
- TGI (DMS 114 small cell lung): > 100 µM
- TGI (DMS 273 small cell lung): > 100 µM
- TGI (KM20L2 colon): > 100 µM
- TGI (RXF-631 renal): > 100 µM

SMILES: C#CCOCn1cnc2c(Sc3c([N+](=O)[O-])ncn3C)ncnc21
- TGI (DLD-1 colon): > 100 µM
- TGI (DMS 114 small cell lung): > 100 µM
- TGI (DMS 273 small cell lung): > 100 µM
- TGI (KM20L2 colon): > 100 µM
- TGI (RXF-631 renal): > 100 µM
- TGI (XF 498 CNS): > 100 µM

SMILES: O=C1C=CC(=O)C12CCc1ccccc12
- TGI (DLD-1 colon): > 100 µM
- TGI (DMS 114 small cell lung): > 100 µM
- TGI (DMS 273 small cell lung): > 100 µM
- TGI (KM20L2 colon): > 100 µM
- TGI (RXF-631 renal): > 100 µM
- TGI (XF 498 CNS): > 100 µM

SMILES: CN1CC(=O)N(C)c2ncn(Cc3ccccc3)c2C1=O
- TGI (DLD-1 colon): > 100 µM
- TGI (DMS 114 small cell lung): > 100 µM
- TGI (DMS 273 small cell lung): > 100 µM
- TGI (RXF-631 renal): > 100 µM
- TGI (XF 498 CNS): 96.4 µM

SMILES: C[C@]12CCC(=O)C(O)=C1CC[C@@H]1C2CC[C@]2(C)NC(=O)CCC12 (stereo partly specified)
- TGI (DMS 114 small cell lung): > 100 µM
- TGI (DMS 273 small cell lung): > 100 µM
- TGI (KM20L2 colon): > 100 µM
- TGI (RXF-631 renal): > 100 µM
- TGI (XF 498 CNS): > 100 µM

SMILES: COc1ccc(C(=O)C(C(=O)CC(=O)Nc2cccc(C(F)(F)F)c2)c2ccc(OC)cc2)cc1 (stereo unspecified)
- TGI (DLD-1 colon): > 100 µM
- TGI (DMS 114 small cell lung): > 100 µM
- TGI (DMS 273 small cell lung): > 100 µM
- TGI (KM20L2 colon): > 100 µM
- TGI (RXF-631 renal): > 100 µM
- TGI (XF 498 CNS): > 100 µM

SMILES: Cn1nc(-c2ccccc2)c(C(=O)/C=C/c2ccc(Cl)cc2)c(N2CCCCC2)c1=O
- TGI (DLD-1 colon): 7.08 µM
- TGI (DMS 114 small cell lung): 4.37 µM
- TGI (DMS 273 small cell lung): 6.75 µM
- TGI (KM20L2 colon): 6.46 µM
- TGI (RXF-631 renal): 9.79 µM
- TGI (XF 498 CNS): 3.91 µM

SMILES: COc1ccccc1C(O)(c1ccccc1)C(O)(c1ccccc1)c1ccccc1OC (stereo unspecified)
- TGI (DLD-1 colon): > 100 µM
- TGI (DMS 114 small cell lung): > 100 µM
- TGI (DMS 273 small cell lung): > 100 µM
- TGI (KM20L2 colon): > 100 µM
- TGI (RXF-631 renal): > 100 µM
- TGI (XF 498 CNS): > 100 µM

SMILES: CCN(CC)CCCNC(=O)C1COc2cc(-c3cc(=O)c4ccccc4o3)ccc2O1 (stereo unspecified)
- TGI (DLD-1 colon): > 100 µM
- TGI (DMS 114 small cell lung): 50.9 µM
- TGI (DMS 273 small cell lung): > 100 µM
- TGI (KM20L2 colon): > 100 µM
- TGI (RXF-631 renal): > 100 µM

SMILES: CC1=C[C@]2(O)C(=O)[C@H](C)C[C@H]3[C@@H](CC[C@@](C)(O)/C=C\2C1=O)C3(C)C
- TGI (DLD-1 colon): 34.9 µM
- TGI (DMS 114 small cell lung): > 53.9 µM
- TGI (DMS 273 small cell lung): 52.3 µM
- TGI (KM20L2 colon): 19.5 µM
- TGI (RXF-631 renal): > 74.3 µM
- TGI (XF 498 CNS): 32.8 µM

SMILES: CCOc1ccc(N=Cc2ccc3cc(C)ccc3n2)cc1
- TGI (DLD-1 colon): > 100 µM
- TGI (DMS 114 small cell lung): > 100 µM
- TGI (DMS 273 small cell lung): > 100 µM
- TGI (KM20L2 colon): > 100 µM
- TGI (RXF-631 renal): > 100 µM
- TGI (XF 498 CNS): > 100 µM
